Data: patent US10513694B2, “Thienopyrrole compounds and uses thereof” (PROMEGA CORPORATION, priority 2015, dated 2019)
Values joined by “and” are separate entries in the source; they are usually repeats but may differ in a detail not shown here. Equal entries are not always repeated. Structures can show the parent of a compound that is named as a salt.

Target: NANOLUC® enzyme (Oplophorus gracilirostris, UniProt Q9GV45, A31E/A60N/A81I/F95D/I117V/K70R/L54V/L99Q/M102K/N193R/P142E/Q151K/Q38R/Q45L/V71I/Y165I)
Assay: Inhibitor IC50 determination (NANOLUC enzyme, furimazine)
Type: biochemical
Conditions: IC50 (uM), 0.4 ng/ml NANOLUC enzyme, final furimazine 10 uM (at Km)
Protocol: The following example provides the IC50 values for the compounds disclosed herein. See Table 5 NANOLUC® enzyme was diluted to 0.4 ng/ml in CO2 independent media+10% FBS to make the detection reagent. A 3× dilution series of each inhibitor was then made in the detection reagent. A “no inhibitor” control was also made for each sample. 50 ul of each inhibitor dilution was mixed with 50 ul of NanoGlo buffer containing 20 uM furimazine. (Final furimazine concentration is 10 uM which is at Km.), and luminescence measured. Each sample was normalized to the “no inhibitor” control. The […] values were then determined using GraphPad Prism (log [inhibitor] vs. normalized response).

Chain of NANOLUC® enzyme (Q9GV45 28-196 with tags or gaps with the stated changes limits assumed): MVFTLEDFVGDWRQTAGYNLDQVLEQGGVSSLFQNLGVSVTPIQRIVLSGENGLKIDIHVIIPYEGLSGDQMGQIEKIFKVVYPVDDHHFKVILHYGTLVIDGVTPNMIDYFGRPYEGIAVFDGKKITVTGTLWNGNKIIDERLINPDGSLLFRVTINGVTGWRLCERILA

CCN(C(=O)Cn1c(C(=O)N[C@H]2CC[C@H](C(=O)OC)CC2)cc2sccc21)c1cccc(C(C)C)c1 [JRW-0460, Methyl trans-4-(4-(2-(ethyl(3-isopropylphenyl)amino)-2-oxoethyl)-4H-thieno[3,2-b]pyrrole-5-carboxamido)cyclohexane-1-carboxylate]
IC50: 0.12 µM

CCN(C(=O)Cn1c(C(=O)N[C@H]2CC[C@@H](C(=O)OC)CC2)cc2sccc21)c1cccc(C)c1 [JRW-0041, methyl-cis-4-(4-(2-(ethyl(m-tolyl)amino)-2-oxoethyl)-4H-thieno[3,2-b]pyrrole-5-carboxamido)cyclohexane-1-carboxylate]
IC50: 0.2 µM

CCN(C(=O)Cn1c(C(=O)N[C@H]2CC[C@H](C(=O)NCCO)CC2)cc2sccc21)c1cccc(C)c1 [JRW-0043, 4-(2-(ethyl(m-tolyl)amino)-2-oxoethyl)-N-(trans-4-((2-hydroxyethyl)carbamoyl)cyclohexyl)-4H-thieno[3,2-b]pyrrole-5-carboxamide]
IC50: 0.84 µM

CCN(C(=O)Cn1c(C(=O)N[C@H]2CC[C@H](C(=O)NCCCCCCN)CC2)cc2sccc21)c1cccc(C)c1 [JRW-0241, N-(trans-4-((6-aminohexyl)carbamoyl)cyclohexyl)-4-(2-(ethyl(m-tolyl)amino)-2-oxoethyl)-4H-thieno[3,2-b]pyrrole-5-carboxamide hydrochloride]
IC50: 0.063 µM

CCN(C(=O)Cn1c(C(=O)N[C@H]2CC[C@H](C(=O)OC)CC2)cc2sccc21)c1cccc(CC(C)C)c1 [JRW-0508, Methyl trans-4-(4-(2-(ethyl(3-isobutylphenyl)amino)-2-oxoethyl)-4H-thieno[3,2-b]pyrrole-5-carboxamido)cyclohexane-1-carboxylate]
IC50: 0.027 µM

CCN(C(=O)Cn1c(C(=O)N[C@H]2CC[C@H](C(=O)NCCCCCCO)CC2)cc2sccc21)c1cccc(C)c1 [JRW-0242, 4-(2-(ethyl(m-tolyl)amino)-2-oxoethyl)-N-(trans-4-((6-hydroxyhexyl)carbamoyl)cyclohexyl)-4H-thieno[3,2-b]pyrrole-5-carboxamide]
IC50: 0.035 µM

CCN(C(=O)Cn1c(C(=O)N[C@H]2CC[C@H](C(=O)NCCN(C)C)CC2)cc2sccc21)c1cccc(C)c1 [JRW-0044, N-(trans-4-((2-(dimethylamino)ethyl)carbamoyl)cyclohexyl)-4-(2-(ethyl(m-tolyl)amino)-2-oxoethyl)-4H-thieno[3,2-b]pyrrole-5-carboxamide]
IC50: 16.8 µM

CCN(C(=O)Cn1c(C(=O)Nc2ccccc2)cc2sccc21)c1cccc(C)c1 [JRW-0143, 4-(2-(ethyl(m-tolyl)amino)-2-oxoethyl)-N-phenyl-4H-thieno[3,2-b]pyrrole-5-carboxamide]
IC50: 2.8 µM and 2.6 µM

COCCOCCN(C(=O)Cn1c(C(=O)N[C@H]2CC[C@H](C(=O)OC)CC2)cc2sccc21)c1cccc(C)c1 [JRW-0110, Methyl-trans-4-(4-(2-((2-(2-methoxyethoxy)ethyl)(m-tolyl)amino)-2-oxoethyl)-4H-thieno[3,2-b]pyrrole-5-carboxamido)cyclohexane-1-carboxylate]
IC50: 3 µM

CCN(C(=O)Cn1c(C(=O)N[C@H]2CC[C@H](C(=O)OC)CC2)cc2ccccc21)c1cccc(C)c1 [JRW-0355, Methyl trans-4-(1-(2-(ethyl(m-tolyl)amino)-2-oxoethyl)-1H-indole-2-carboxamido)cyclohexane-1-carboxylate]
IC50: 0.052 µM

CCN(C(=O)Cn1c(C(=O)N[C@H]2CC[C@H](C(=O)OC)CC2)cc2sccc21)c1cccc(CBr)c1 [JRW-0466, Methyl trans-4-(4-(2-((3-(bromomethyl)phenyl)(ethyl)amino)-2-oxoethyl)-4H-thieno[3,2-b]pyrrole-5-carboxamido)cyclohexane-1-carboxylate]
IC50: 0.0018 µM

CCN(C(=O)Cn1c(C(=O)N[C@H]2CC[C@H](C(=O)OC)CC2)cc2sccc21)c1cccc(CO)c1 [JRW-0461, Methyl trans-4-(4-(2-(ethyl(3-(hydroxymethyl)phenyl)amino)-2-oxoethyl)-4H-thieno[3,2-b]pyrrole-5-carboxamido)cyclohexane-1-carboxylate]
IC50: 0.077 µM

CCCCCCN(C(=O)Cn1c(C(=O)NC2CCCCC2)cc2sccc21)c1cccc(C)c1 [JRW-0148, N-cyclohexyl-4-(2-(hexyl(m-tolyl)amino)-2-oxoethyl)-4H-thieno[3,2-b]pyrrole-5-carboxamide]
IC50: 5.3 µM

Cc1cccc(NC(=O)Cn2c(C(=O)NC3CCCCC3)cc3sccc32)c1 [JRW-0081, N-cyclohexyl-4-(2-oxo-2-(m-tolylamino)ethyl)-4H-thieno[3,2-b]pyrrole-5-carboxamide]
IC50: 19.4 µM

CCc1cccc(N(CC)C(=O)Cn2c(C(=O)N[C@H]3CC[C@H](C(=O)NCCCCCCS(=O)(=O)O)CC3)cc3ccccc32)c1 [JRW-0434, Sodium 6-(trans-4-(1-(2-(ethyl(3-ethylphenyl)amino)-2-oxoethyl)-1H-indole-2-carboxamido)cyclohexane-1-carboxamido)hexane-1-sulfonate]
IC50: 0.0019 µM

CCN(C(=O)Cn1c(C(=O)N[C@H]2CC[C@H](C(=O)OC)CC2)cc2sccc21)c1cccc(N(C)C)c1 [JRW-0478, Methyl trans-4-(4-(2-((3-(dimethylamino)phenyl)(ethyl)amino)-2-oxoethyl)-4H-thieno[3,2-b]pyrrole-5-carboxamido)cyclohexane-1-carboxylate]
IC50: 0.065 µM

CCc1cccc(N(CC)C(=O)Cn2c(C(=O)N[C@H]3CC[C@H](C(=O)NCCCCCCO)CC3)cc3ccccc32)c1 [JRW-0430, 1-(2-(Ethyl(3-ethylphenyl)amino)-2-oxoethyl)-N-(trans-4-((6-hydroxyhexyl)carbamoyl)cyclohexyl)-1H-indole-2-carboxamide]
IC50: 0.0021 µM

CCN(C(=O)Cn1c(C(=O)N[C@H]2CC[C@H](C(N)=O)CC2)cc2sccc21)c1cccc(C)c1 [JRW-0052, N-(trans-4-carbamoylcyclohexyl)-4-(2-(ethyl(m-tolyl)amino)-2-oxoethyl)-4H-thieno[3,2-b]pyrrole-5-carboxamide]
IC50: 1.3 µM

CCc1cccc(N(CC)C(=O)Cn2c(C(=O)N[C@H]3CC[C@H](C(=O)NCCCCCCO)CC3)cc3sccc32)c1 [JRW-0429, 4-(2-(Ethyl(3-ethylphenyl)amino)-2-oxoethyl)-N-(trans-4-((6-hydroxyhexyl)carbamoyl)cyclohexyl)-4H-thieno[3,2-b]pyrrole-5-carboxamide]
IC50: 0.0021 µM

CCc1cccc(N(CC)C(=O)Cn2c(C(=O)N[C@H]3CC[C@H](C(=O)OC)CC3)cc3sccc32)c1 [JRW-0326, Methyl trans-4-(4-(2-(ethyl(3-ethylphenyl)amino)-2-oxoethyl)-4H-thieno[3,2-b]pyrrole-5-carboxamido)cyclohexane-1-carboxylate]
IC50: 0.0039 µM

CCOC(=O)Cc1ccc(NC(=O)c2cc3sccc3n2CC(=O)N(CC)c2cccc(C)c2)cc1 [JRW-0152, ethyl 2-(4-(4-(2-(ethyl(m-tolyl)amino)-2-oxoethyl)-4H-thieno[3,2-b]pyrrole-5-carboxamido)phenyl)acetate]
IC50: 4.3 µM

CCN(C(=O)Cn1c(C(=O)Nc2cccc(C(=O)OC)c2)cc2sccc21)c1cccc(C)c1 [JRW-0151, methyl 3-(4-(2-(ethyl(m-tolyl)amino)-2-oxoethyl)-4H-thieno[3,2-b]pyrrole-5-carboxamido)benzoate]
IC50: 7 µM

CCN(C(=O)Cn1c(C(=O)N[C@H]2CC[C@H](C(=O)OC)CC2)cc2sccc21)c1ccc(CO)cc1 [JRW-0335, Methyl trans-4-(4-(2-(ethyl(4-(hydroxymethyl)phenyl)amino)-2-oxoethyl)-4H-thieno[3,2-b]pyrrole-5-carboxamido)cyclohexane-1-carboxylate]
IC50: 1.9 µM

CCN(C(=O)Cn1c(C(=O)N[C@H]2CC[C@H](C(=O)NCCCCCCCC(=O)O)CC2)cc2sccc21)c1cccc(C)c1 [JRW-0188, 8-(trans-4-(4-(2-(ethyl(m-tolyl)amino)-2-oxoethyl)-4H-thieno[3,2-b]pyrrole-5-carboxamido)cyclohexane-1-carboxamido)octanoic acid]
IC50: 0.022 µM

CCN(C(=O)Cn1c(C(=O)N[C@H]2CC[C@H](C(=O)OC)CC2)cc2sccc21)c1cccc(C#N)c1 [JRW-0321, Methyl trans-4-(4-(2-((3-cyanophenyl)(ethyl)amino)-2-oxoethyl)-4H-thieno[3,2-b]pyrrole-5-carboxamido)cyclohexane-1-carboxylate]
IC50: 0.16 µM

CCN(C(=O)Cn1c(C(=O)N[C@H]2CC[C@H](C(=O)OC)CC2)cc2sccc21)c1ccc(C)cc1 [JRW-0334, Methyl trans-4-(4-(2-(ethyl(p-tolyl)amino)-2-oxoethyl)-4H-thieno[3,2-b]pyrrole-5-carboxamido)cyclohexane-1-carboxylate]
IC50: 1.3 µM

CCN(C(=O)Cn1c(C(=O)N[C@H]2CC[C@H](C(=O)OC)CC2)cc2sccc21)c1ccccc1C [JRW-0330, Methyl trans-4-(4-(2-(ethyl(o-tolyl)amino)-2-oxoethyl)-4H-thieno[3,2-b]pyrrole-5-carboxamido)cyclohexane-1-carboxylate]
IC50: 0.7 µM

CCN(C(=O)Cn1c(C(=O)N[C@H]2CC[C@@H](C(=O)NCCCCCC(=O)O)CC2)cc2sccc21)c1cccc(C)c1 [JRW-0264, 6-(cis-4-(4-(2-(ethyl(m-tolyl)amino)-2-oxoethyl)-4H-thieno[3,2-b]pyrrole-5-carboxamido)cyclohexane-1-carboxamido)hexanoic acid]
IC50: 0.24 µM

CCN(C(=O)Cn1cccc1C(=O)N[C@H]1CC[C@H](C(=O)OC)CC1)c1cccc(C)c1 [JRW-0456, Methyl trans-4-(1-(2-(ethyl(m-tolyl)amino)-2-oxoethyl)-1H-pyrrole-2-carboxamido)cyclohexane-1-carboxylate]
IC50: 7.4 µM
